Data on 24 molecules can be found in patent publication US20240124454A1, “TRICYCLIC COMPOUND AND USE THEREOF” (NANJING ZAIMING PHARMACEUTICAL CO., LTD., priority 2020, published 2024).

Read-outs that look alike come from different tables or passages of the source. Where only a bound is given, the exact number is not on record here.

In this experiment the target is MAT2A (Homo sapiens (Human), UniProt P31153). The experiment is described as follows: MAT2A biochemical test (inorganic phosphate colorimetric, PiColorLock). Conditions: read-out: MAT2A inhibitory Activity IC50. From the text:
Test Example 1. Biochemical Test
The brief introduction of the test principle: L-methionine and ATP can be converted into SAM, inorganic phosphate, and inorganic diphosphate under the catalysis of MAT2A enzymes. The content of inorganic phosphate in the sample can be quantitatively determined by adding a developer such as ammonium molybdate or the like to the enzymatic reaction mixture, thereby reflecting the enzymatic activity of MAT2A.
Reference: The experiment referred to the method disclosed in patent WO2018045071.
Material: MAT2A screening kits were purchased from BPS bioscience (U.S.); 384-well plates were purchased from Corning Company (U.S.). • 1. MAT2A protein (Pharmaron Beijing Co., Ltd.); • 2. L-methionine (Sigma #M9625-5G) • 3. ATP (Sigma #A7699-1G) • 4. KCl (Sigma #60142-500ML-F) • 5. Tris (Sigma #T2663-1L) • 6. MgCl2 (Sigma #M1028) • 7. EDTA (Invitrogen #AM9260G) • 8. BSA (Sangon Biotech #A500023-0100) • 9. PiColorLock (abcam #ab270004)
Detection method: In the experimental group, the test compound was dissolved in DMSO, diluted to a final concentration of 10 μM using Echo, and diluted 3-fold. 80 nL of the dilution was transferred to a 384-well plate.
The experimental buffer (50 mM Tris, 50 mM KCl, 15 mM MgCl2, 100 μM EDTA, 0.005% BSA) was prepared. The MAT2A protein was diluted with the experimental buffer (at final concentration of […]). 40 μL of 2×MAT2A solution was added to the 384-well plate. The plate was centrifuged at 1000 rpm for 1 min and incubated at room temperature for 120 min.
L-methionine and ATP (the final concentration of L-methionine was […] and the final concentration of ATP was 400 μM) were diluted with the experimental buffer. 40 μL of 2×L-methionine and ATP solution was added to initiate the reaction. The plate was centrifuged at 1000 rpm for 1 min and incubated at room temperature for 90 min.
The PiColorLock™ reaction catalyst was mixed with the PiColorLock™ buffer at a ratio of 1:100 according to the instructions. 20 μL was added to each well, and the plate was shaken for 30 s. 8 μL stabilizing reagent was added, and the plate was shaken for 30 s. The signal values were measured after 30 min of incubation at room temperature.
A negative control group and a positive control group were respectively used as Bottom and Top. The negative control group was not added with MAT2A protein, and other operations were consistent with those of the experimental group. The positive control group was not added with the test compound, only added with DMSO in the same volume, and other operations were consistent with those of the experimental group.
The % Compound inhibition was calculated and fitted to give the IC50 of the compound.
% Compound inhibition=1-100%×(Signal−Bottom)/(Top−Bottom).
Signal referred to the signal value of the experimental group, Bottom referred to the average signal value of the negative control group, and Top referred to the average signal value of the positive control group.
Under the condition of this experiment, the inhibitory effect of the test compound on MAT2A can be expressed as the IC50 of the inhibition on the phosphate production level during the enzymatic reaction.

Sequence of MAT2A (P31153 whole entry): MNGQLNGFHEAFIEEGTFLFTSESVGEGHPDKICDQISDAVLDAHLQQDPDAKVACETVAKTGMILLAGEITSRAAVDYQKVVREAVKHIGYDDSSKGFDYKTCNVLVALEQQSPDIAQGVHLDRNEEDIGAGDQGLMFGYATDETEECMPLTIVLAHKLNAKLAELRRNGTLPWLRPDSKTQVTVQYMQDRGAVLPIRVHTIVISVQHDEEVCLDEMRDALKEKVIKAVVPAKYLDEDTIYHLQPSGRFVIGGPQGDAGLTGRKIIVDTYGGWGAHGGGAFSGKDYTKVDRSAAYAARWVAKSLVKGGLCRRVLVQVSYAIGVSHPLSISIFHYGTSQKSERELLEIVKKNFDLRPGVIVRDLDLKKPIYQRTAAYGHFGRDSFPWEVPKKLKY

For the molecule `Cc1cnccc1-n1c(=O)c2ncn(C)c2c2ccc(C(F)(F)F)nc21` [Compound 27, 1-methyl-5-(3-methylpyridin-4-yl)-7-(trifluoromethyl)-1,5-dihydro-4H-imidazo[4,5-c][1,8]naphthyridin-4-one], the IC50 by setting is: (class symbols) 500 to 1000 nM; (numeric values) 819 nM. For `Cc1ccncc1-n1c(=O)c2ncn(C)c2c2ccc(C(F)(F)F)nc21` [Compound 28, 1-methyl-5-(4-methylpyridin-3-yl)-7-(trifluoromethyl)-1,5-dihydro-4H-imidazo[4,5-c][1,8]naphthyridin-4-one], in that order: 100 to 500 nM and 165 nM. For `Cc1ccccc1-n1c(=O)c2ncn(C)c2c2ccc(C(F)(F)F)nc21` [Compound 31, 1-methyl-5-(2-methylphenyl)-7-(trifluoromethyl)-1,5-dihydro-4H-imidazo[4,5-c][1,8]naphthyridin-4-one], in that order: 100 to 500 nM and 159 nM. Regarding `Cn1cnc2c(=O)n(-c3ccc(F)cc3Cl)c3nc(C(F)(F)F)ccc3c21` [Compound 32, 5-(2-chloro-4-fluorophenyl)-1-methyl-7-(trifluoromethyl)-1,5-dihydro-4H-imidazo[4,5-c][1,8]naphthyridin-4-one], the IC50 (class symbols) is 100 to 500 nM and the IC50 (numeric values) was found to be 119 nM.

As to `COc1ccccc1-n1c(=O)c2ncn(C)c2c2ccc(C(F)(F)F)nc21` [Compound 33, 5-(2-methoxyphenyl)-1-methyl-7-(trifluoromethyl)-1,5-dihydro-4H-imidazo[4,5-c][1,8]naphthyridin-4-one], the IC50 is less than 100 nM (class symbols) and 67.6 nM (numeric values).

As to `CC(C)c1ccccc1-n1c(=O)c2ncn(C)c2c2ccc(C(F)(F)F)nc21` [Compound 34, 5-(2-isopropylphenyl)-1-methyl-7-(trifluoromethyl)-1,5-dihydro-4H-imidazo[4,5-c][1,8]naphthyridin-4-one], the IC50 reads like this: (class symbols) less than 100 nM; (numeric values) 73.1 nM. For the molecule `O=c1c2ncn(CCO)c2c2ccc(C(F)(F)F)nc2n1-c1ccccc1Cl` [Compound 50, 5-(2-chlorophenyl)-1-(2-hydroxyethyl)-7-(trifluoromethyl)-1,5-dihydro-4H-imidazo[4,5-c][1,8]naphthyridin-4-one], the IC50 (class symbols) was in the range of 100 to 500 nM and the IC50 (numeric values) worked out at 113 nM. For `O=c1c2ocnc2c2ccc(C(F)(F)F)nc2n1-c1ccccc1Cl` [Compound 51, 5-(2-chlorophenyl)-7-(trifluoromethyl)oxazolo[5,4-c][1,8]naphthyridin-4(5H)-one], in that order: 100 to 500 nM and 182 nM. As to `Cn1cnc2c(=O)n(-c3cccc(C#N)c3)c3nc(C(F)(F)F)ccc3c21` [Compound 52, 3-(1-methyl-4-oxo-7-(trifluoromethyl)-1,4-dihydro-5H-imidazo[4,5-c][1,8]naphthyridin-5-yl)benzonitrile], the IC50 was less than 100 nM (class symbols) and 47.2 nM (numeric values). For the molecule `CN(C)CCn1cnc2c(=O)n(-c3ccccc3Cl)c3nc(C(F)(F)F)ccc3c21` [Compound 53, 5-(2-chlorophenyl)-1-(2-(dimethylamino)ethyl)-7-(trifluoromethyl)-1,5-dihydro-4H-imidazo[4,5-c][1,8]naphthyridin-4-one], the IC50 by setting is: (class symbols) 100 to 500 nM; (numeric values) 314 nM.

In the case of `CNCCn1cnc2c(=O)n(-c3ccccc3Cl)c3nc(C(F)(F)F)ccc3c21` [Compound 54, 5-(2-chlorophenyl)-1-(2-(methylamino)ethyl)-7-(trifluoromethyl)-1,5-dihydro-4H-imidazo[4,5-c][1,8]naphthyridin-4-one], the IC50 reads like this: (class symbols) 500 to 1000 nM; (numeric values) 530 nM.

Take `NCCn1cnc2c(=O)n(-c3ccccc3Cl)c3nc(C(F)(F)F)ccc3c21` [Compound 55, 1-(2-aminoethyl)-5-(2-chlorophenyl)-7-(trifluoromethyl)-1,5-dihydro-4H-imidazo[4,5-c][1,8]naphthyridin-4-one]: the IC50 reads like this: (class symbols) 100 to 500 nM; (numeric values) 296 nM. As to `Cc1ccc2c3c(ncn3C)c(=O)n(-c3ccccc3Cl)c2n1` [Compound 56, 5-(2-chlorophenyl)-1,7-dimethyl-1,5-dihydro-4H-imidazo[4,5-c][1,8]naphthyridin-4-one], the IC50 was less than 100 nM (class symbols) and 73.7 nM (numeric values).

For the molecule `COc1ccc(-n2c(=O)c3ncn(C)c3c3ccc(C(F)(F)F)nc32)cc1` [Compound 59, 5-(4-methoxyphenyl)-1-methyl-7-(trifluoromethyl)-1,5-dihydro-4H-imidazo[4,5-c][1,8]naphthyridin-4-one], the IC50 is, setting by setting: (class symbols) 100 to 500 nM; (numeric values) 252 nM. For `Cn1nccc1-n1c(=O)c2ncn(C)c2c2ccc(C(F)(F)F)nc21` [Compound 60, 1-methyl-5-(1-methyl-1H-pyrazol-5-yl)-7-(trifluoromethyl)-1,5-dihydro-4H-imidazo[4,5-c][1,8]naphthyridin-4(5H)-one], the IC50 (class symbols) is 100 to 500 nM. With `CCn1cnc2c(=O)n(-c3ccccc3Cl)c3nc(C(F)(F)F)ccc3c21` [Compound 61, 5-(2-chlorophenyl)-1-ethyl-7-(trifluoromethyl)-1,5-dihydro-4H-imidazo[4,5-c][1,8]naphthyridin-4-one], the IC50 by setting is: (class symbols) 100 to 500 nM; (numeric values) 102 nM. As to `Cn1cnc2c(=O)n(-c3ccc(Cl)cc3Cl)c3nc(C(F)(F)F)ccc3c21` [Compound 62, 5-(2,4-dichlorophenyl)-1-methyl-7-(trifluoromethyl)-1,5-dihydro-4H-imidazo[4,5-c][1,8]naphthyridin-4-one], the IC50 (class symbols) lay in the range of 100 to 500 nM and the IC50 (numeric values) was 251 nM.

Consider `Cn1cnc2c(=O)n(-c3cccc(F)c3)c3nc(C(F)(F)F)ccc3c21` [Compound 63, 5-(3-fluorophenyl)-1-methyl-7-(trifluoromethyl)-1,5-dihydro-4H-imidazo[4,5-c][1,8]naphthyridin-4-one], for which the IC50 was less than 100 nM (class symbols) and 48.1 nM (numeric values). For `Cn1cnc2c(=O)n(-c3cccc(F)c3Cl)c3cc(C(F)(F)F)ccc3c21` [Compound 66, 5-(2-chloro-3-fluorophenyl)-1-methyl-7-(trifluoromethyl)-1,5-dihydro-4H-imidazo[4,5-c]quinolin-4-one], in that order: less than 100 nM and 47.3 nM. On to `Cn1cnc2c(=O)n(-c3ccc(OC(F)F)cn3)c3nc(C(F)(F)F)ccc3c21` [Compound 69, 5-(5-(difluoromethoxy)pyridin-2-yl)-1-methyl-7-(trifluoromethyl)-1,5-dihydro-4H-imidazo[4,5-c][1,8]naphthyridin-4-one], for which the IC50 was 100 to 500 nM (class symbols) and 282 nM (numeric values). For `Cn1cnc2c(=O)n(-c3ccc(OC(F)F)c(F)c3)c3nc(C(F)(F)F)ccc3c21` [Compound 71, 5-[4-(difluoromethoxy)-3-fluorophenyl]-1-methyl-7-(trifluoromethyl)-1,5-dihydro-4H-imidazo[4,5-c][1,8]naphthyridin-4-one], in that order: 500 to 1000 nM and 978 nM. Take `Cc1ncccc1-n1c(=O)c2ncn(Cc3cnn(C)c3)c2c2ccc(C(F)(F)F)nc21` [Compound 74, 1-((1-methyl-1H-pyrazol-4-yl)methyl)-5-(2-methylpyridin-3-yl)-7-(trifluoromethyl)-1,5-dihydro-4H-imidazo[4,5-c][1,8]naphthyridin-4-one]: the half-inhibitory concentration (IC50) by setting is: (class symbols) 100 to 500 nM; (numeric values) 140 nM. Take `Cc1ncccc1-n1c(=O)c2ncn(C)c2c2cnc(C(F)(F)F)nc21` [Compound 75, 1-methyl-5-(2-methylpyridin-3-yl)-7-(trifluoromethyl)-1,5-dihydro-4H-imidazo[4′,5′:4,5]pyrido[2,3-d]pyrimidin-4-one]: the IC50 reads like this: (class symbols) less than 100 nM; (numeric values) 71.7 nM. With `Cn1cnc2c(=O)n(-c3cncnc3)c3nc(C(F)(F)F)ccc3c21` [Compound 76, 1-methyl-5-(pyrimidin-5-yl)-7-(trifluoromethyl)-1,5-dihydro-4H-imidazo[4,5-c][1,8]naphthyridin-4-one], the IC50 is 100 to 500 nM (class symbols) and 201 nM (numeric values).

One may read the IC50 as the point on the concentration scale where inhibition reaches its midpoint.
